Structures are written as SMILES. Where a name gives a salt, the structure may show the parent alone.

Here are results for nine compounds from US20150274719A1, “AMINO-SUBSTITUTED IMIDAZO[1,2-A]PYRIDINECARBOXAMIDES AND THEIR USE” (BAYER PHARMA AKTIENGESELLSCHAFT, priority 2012, published 2015).

In the experiment the target is T1, recombinant guanylate cyclase reporter cell line (Rattus norvegicus, UniProt P19686+P20595).
T1 construct: expressed in transfected cells; host or cells: recombinant reporter cell line
T1 sequence (P19686 1-690): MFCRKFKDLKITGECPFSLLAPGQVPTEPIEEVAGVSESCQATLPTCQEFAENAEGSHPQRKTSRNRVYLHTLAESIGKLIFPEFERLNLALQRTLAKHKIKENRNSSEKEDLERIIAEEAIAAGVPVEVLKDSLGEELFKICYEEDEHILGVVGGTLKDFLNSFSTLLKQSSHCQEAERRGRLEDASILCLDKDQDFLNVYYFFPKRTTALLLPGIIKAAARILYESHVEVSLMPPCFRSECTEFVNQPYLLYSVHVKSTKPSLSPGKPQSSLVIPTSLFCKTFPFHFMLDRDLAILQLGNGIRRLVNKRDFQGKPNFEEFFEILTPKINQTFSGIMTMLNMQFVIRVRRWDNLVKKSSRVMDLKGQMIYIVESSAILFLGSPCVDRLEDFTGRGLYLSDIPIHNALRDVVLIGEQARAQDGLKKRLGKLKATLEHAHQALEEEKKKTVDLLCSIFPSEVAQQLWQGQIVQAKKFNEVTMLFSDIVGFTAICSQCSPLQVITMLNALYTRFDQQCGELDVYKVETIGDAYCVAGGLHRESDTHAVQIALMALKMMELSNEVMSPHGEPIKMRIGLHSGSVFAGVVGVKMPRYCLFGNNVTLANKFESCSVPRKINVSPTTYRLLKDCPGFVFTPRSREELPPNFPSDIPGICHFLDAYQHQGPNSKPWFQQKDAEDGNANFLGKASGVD
T1 sequence (P20595 1-619): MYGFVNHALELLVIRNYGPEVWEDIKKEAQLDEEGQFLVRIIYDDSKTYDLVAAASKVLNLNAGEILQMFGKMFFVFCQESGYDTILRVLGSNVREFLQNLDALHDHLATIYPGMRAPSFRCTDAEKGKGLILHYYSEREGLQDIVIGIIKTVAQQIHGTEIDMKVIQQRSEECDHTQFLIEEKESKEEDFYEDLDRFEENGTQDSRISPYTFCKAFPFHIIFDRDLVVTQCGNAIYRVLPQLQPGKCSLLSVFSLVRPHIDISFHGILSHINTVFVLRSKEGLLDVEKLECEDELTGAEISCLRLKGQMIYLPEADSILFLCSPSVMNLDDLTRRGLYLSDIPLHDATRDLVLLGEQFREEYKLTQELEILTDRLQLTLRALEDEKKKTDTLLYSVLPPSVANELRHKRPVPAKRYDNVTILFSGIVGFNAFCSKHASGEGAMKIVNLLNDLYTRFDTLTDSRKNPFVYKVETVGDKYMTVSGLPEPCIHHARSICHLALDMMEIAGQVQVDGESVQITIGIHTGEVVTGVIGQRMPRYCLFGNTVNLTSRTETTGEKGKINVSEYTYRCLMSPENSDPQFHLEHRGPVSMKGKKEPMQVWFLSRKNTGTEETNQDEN
Briefly: Action on recombinant guanylate cyclase reporter cell line. The format is cell-based. The settings on record: in some cases mean values from individual determinations. The essentials: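 Compounds are tested on whole cells carrying a guanylate cyclase reporter construct. The lowest concentration giving an effect is recorded as the MEC.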
Consider `Cc1cc(OCc2c(F)cccc2F)c2nc(C)c(C(=O)NCC(C)(N)CCO)n2c1` (single isomer, unassigned; enantiomer a) [Example 271, ent-N-(2-Amino-4-hydroxy-2-methylbutyl)-8-[(2,6-difluorobenzyl)oxy]-2,6-dimethylimidazo[1,2-a]pyridine-3-carboxamide (Enantiomer A)], for which the “MEC (minimal effective concentration)” value amounted to 0.30 µM. Take `Cc1nc2c(OCc3c(F)cccc3F)cccn2c1C(=O)NCC(C)(N)CCO` (single isomer, unassigned; enantiomer a) [Example 272, ent-N-(2-Amino-4-hydroxy-2-methylbutyl)-8-[(2,6-difluorobenzyl)oxy]-2-methylimidazo[1,2-a]-pyridine-3-carboxamide (Enantiomer A)]: the “MEC (minimal effective concentration)” value came out at 5.5 µM.

Consider `CCC(C)(N)CNC(=O)c1c(C)nc2c(OCc3c(F)cccc3F)cc(C(F)F)cn12` (single isomer, unassigned; enantiomer a) [Example 288, ent-N-(2-amino-2-methylbutyl)-8-[(2,6-difluorobenzyl)oxy]-6-(difluoromethyl)-2-methylimidazo[1,2-a]pyridine-3-carboxamide (Enantiomer A)], for which the “MEC (minimal effective concentration)” value was 0.3 µM. For `Cc1cc(OCc2c(F)cccc2F)c2nc(C)c(C(=O)NCC(C)(N)Cc3ccccn3)n2c1` (single isomer, unassigned; enantiomer a) [Example 298, ent-N-[2-amino-2-methyl-3-(pyridin-2-yl)propyl]-8-[(2,6-difluorobenzyl)oxy]-2,6-dimethyl-imidazo[1,2-a]pyridine-3-carboxamide (Enantiomer A)], the “MEC (minimal effective concentration)” value amounted to 0.10 µM. The value for `CCC(C)(N)CNC(=O)c1c(C)nc2c(OCc3c(F)ccc(F)c3F)cc(C)cn12` (single isomer, unassigned; enantiomer a) [Example 300, ent-N-(2-amino-2-methylbutyl)-2,6-dimethyl-8-[(2,3,6-trifluorobenzyl)oxy]imidazo[1,2-a]pyridine-3-carboxamide (Enantiomer A) hydrochloride] was 0.10 µM; that for `Cc1cc(OCc2c(F)cccc2F)c2nc(C)c(C(=O)NC3CCC3N)n2c1` (single isomer, unassigned; enantiomer a) [Example 328, ent-N-(2-aminocyclobutyl)-8-[(2,6-difluorobenzyl)oxy]-2,6-dimethylimidazo[1,2-a]pyridine-3-carboxamide (Enantiomer A)] was 3.00 µM; that for `Cc1cc(OCc2c(F)cccc2F)c2nc(C)c(C(=O)NC3CCC3(C)N)n2c1` (single isomer, unassigned; enantiomer a) [Example 332, ent-N-[2-amino-2-methylcyclobutyl]-8-[(2,6-difluorobenzyl)oxy]-2,6-dimethylimidazo[1,2-a]pyridine-3-carboxamide (Enantiomer A)] was 1.00 µM.

On to `Cc1cc(OCc2c(F)cccc2F)c2nc(C)c(C(=O)NC3(C)CCC3(C)N)n2c1` (single isomer, unassigned; enantiomer a) [Example 336, ent-N-[(2-amino-1,2-dimethylcyclobutyl]-8-[(2,6-difluorobenzyl)oxy]-2,6-dimethylimidazo[1,2-a]pyridine-3-carboxamide (Enantiomer A)], for which the “MEC (minimal effective concentration)” value is 0.30 µM. The value for `CCC(C)(N)CNC(=O)c1c(C)nc2c(OCc3c(F)cccc3F)cc(C)cn12.Cl` (single isomer, unassigned; enantiomer a) [Example 357, ent-N-(2-amino-2-methylbutyl)-8-[(2,6-difluorobenzyl)oxy]-2,6-dimethylimidazo[1,2-a]pyridine-3-carboxamide hydrochloride (Enantiomer A)] was 0.03 µM.
